The subject of series [1] is H1N1 influenza A virus strain A/FM/1/47. Briefly: Anti-influenza virus activity in vitro (inhibition of virus replication in MDCK cells). The class given is cell-based. As to conditions: 72 h, read-out: EC50 for in vitro inhibition of replication of H1N1 (FM1) influenza virus.
Series [2] in a line: PK study in rats, single oral gavage. The series is classed as in vivo. To be noted: SD rats, single oral gavage 3.0 mg/kg. The protocol: SD rats were administered in a single oral gavage administration with different groups of drugs, including compound I-1-1-2, compound I-1-1-3, compound I-1-1-6, compound I-20, compound II-5, and Baloxavir Marboxil. After administration, plasma at different time points were collected to detect the drug content, and the pharmacokinetic parameters of different groups of drugs in SD rats were calculated and compared.
48 SD rats, weighing 180 g-220 g, with half male and half female, were randomly assigned to 6 groups according to their body weight, with 8 rats in each group. Animal grouping information was as follows:
(§1) After SD rats were randomly assigned to groups, they were fasted for more than 12 hours before administration and were allowed to drink water freely. Drinking water was prohibited from 1 hour before administration to 1 hour after administration. Food was provided 4 hours after administration. Each group was administered with a single oral gavage dose of 3.0 mg/kg. Approximately 0.2 mL of jugular vein blood was collected at 0 h before administration and 5 min, 10 min, 15 min, 30 min, 1 h, 2 h, 4 h, 6 h, 10 h, 24 h and 30 h after administration, and placed in EDTA-K2 anticoagulation tubes.
(§2) After the whole blood was collected, the plasma was separated by centrifugation at 4000 rpm for 10 min at 4° C., and then stored in a refrigerator at −80° C. for testing. The plasma drug concentration of samples in each group was determined by LC-MS/MS.
PK parameters were calculated using a non-compartmental model in Phoenix winnonlin 8.0. Data analysis included Cmax, Tmax, AUC0-t, AUC0-∞∞, t1/2 and other pharmacokinetic parameters.

Series [3] can be described thus: PK study in cynomolgus monkeys, single oral gavage. The series is classed as in vivo. To be noted: single oral gavage 5.0 mg/kg. The protocol: Cynomolgus monkeys were administered with a single oral gavage with different groups of drugs, including compound I-1-1-2, compound I-1-1-3 and Baloxavir Marboxil. After administration, plasma at different time points were collected to detect the drug content, and the pharmacokinetic parameters of different groups of drugs in cynomolgus monkeys were calculated and compared.
24 cynomolgus monkeys, aged 3-5 years old and weighing 3 kg-7 kg, with half male and half female, were used and randomly assigned to 3 groups according to their body weight, with 8 monkeys in each group. Animal grouping information was as follows:
as §1, with “After cynomolgus monkeys” for “After SD rats”, “of 5.0” for “of 3.0”, “Approximately 1.0” for “Approximately 0.2”, “h, 8 h, 12” for “h, 10”, “24 h, and 48” for “24”, “h (D2)” for “h and 30 h”
as §2
PK parameters were calculated using non-compartmental model in a Phoenix winnonlin 8.0. Data analysis included Cmax, Tmax, AUC0-t, AUC0-∞∞, t1/2 and other pharmacokinetic parameters.

Molecules are shown by their SMILES. Converted amounts (≈) assume the structure as drawn.

Consider `COC(=O)OCOc1c2n(ccc1=O)N([C@@H]1c3ccccc3SCc3c1ccc(F)c3F)[C@@H]1COCCN1C2=O` [Baloxavir Marboxil, reference compound], for which, in series [1], the EC50 (in general, the concentration giving half of the maximal effect) was 0.32 µg/mL (≈ 0.56 µM). Besides, the “Bioavailability (Cmax and AUC0-t) compared with Compound I-20 and Compound II-5 groups” value in series [2] is given as “significantly improved”.
As for `CC(=O)OCOc1c2n(ccc1=O)N([C@@H]1c3ccccc3SCc3c1ccc(F)c3F)[C@@H]1COCCN1C2=O` [Compound II-5, reference compound], in series [1], the EC50 worked out at 0.32 µg/mL (≈ 0.576 µM).
Consider `CC(=O)OC(C)Oc1c2n(ccc1=O)N([C@@H]1c3ccccc3SCc3c1ccc(F)c3F)[C@@H]1COCCN1C2=O` (some centres unmarked) [Compound I-1-1-3], for which the EC50 in series [1] was found to be 0.32 µg/mL (≈ 0.562 µM). In series [3], the “Bioavailability (Cmax and AUC0-t) compared with Baloxavir Marboxil group” value is “significantly improved”. Moreover, in series [2], the “Bioavailability (Cmax and AUC0-t) compared with Baloxavir Marboxil group” value is “significantly improved”; the “Bioavailability (Cmax and AUC0-t) compared with Compound I-20 and Compound II-5 groups” value is “significantly improved”.
For the molecule `[2H]C([2H])([2H])C(=O)OC(C)Oc1c2n(ccc1=O)N([C@@H]1c3ccccc3SCc3c1ccc(F)c3F)[C@@H]1COCCN1C2=O` (some centres unmarked) [Compound I-20, reference compound], the concentration giving a half-maximal response (EC50) in series [1] turned out to be 0.32 µg/mL (≈ 0.559 µM).
Turning to `CC(=O)OC(C)Oc1c2n(ccc1=O)N([C@@H]1c3ccccc3[Se]Cc3c1ccc(F)c3F)[C@@H]1COCCN1C2=O` (some centres unmarked) [Compound I-1-1-6], the EC50 in series [1] was 0.32 µg/mL (≈ 0.519 µM).
With `CC(=O)O[C@@H](C)Oc1c2n(ccc1=O)N([C@@H]1c3ccccc3SCc3c1ccc(F)c3F)[C@@H]1COCCN1C2=O` [Compound I-1-1-1], the EC50 in series [1] stood at 0.32 µg/mL (≈ 0.562 µM).
For the molecule `CC(=O)O[C@H](C)Oc1c2n(ccc1=O)N([C@@H]1c3ccccc3SCc3c1ccc(F)c3F)[C@@H]1COCCN1C2=O` [Compound I-1-1-2], the EC50 in series [1] came to 0.032 µg/mL (≈ 0.0562 µM). In addition, in series [3], the “Bioavailability (Cmax and AUC0-t) compared with Baloxavir Marboxil group” value is recorded as “significantly improved”; the “Exposure rank among groups” value is given as “highest exposure”; the “Half-life rank among groups” value is recorded as “longest half-life”. Besides, in series [2], the “Bioavailability (Cmax and AUC0-t) compared with Baloxavir Marboxil group” value was “significantly improved”; the “Bioavailability (Cmax and AUC0-t) compared with Compound I-20 and Compound II-5 groups” value was “significantly improved”; the “Half-life (t1/2) rank among groups” value is “longest half-life”.

Values taken from patent US20260272943A1, “Acyl Ethyl Ester Polycyclic Compound, and Pharmaceutical Composition and Use Thereof” (priority 2023, published 2026).
